From article PMC3486708 (Journal of medicinal chemistry, 2012)

Key:
MC65 cells [1] = assay: MC65 cell protection assay; type: cell-based; conditions: for protection of MC65 cell death (in words): MC65 cells, absence of TC
MC65 cells [2] = assay: Toxicity to MC65 cells in the presence of tetracycline; type: cell-based; conditions: median toxic concentration to MC65 cells, presence of TC
ABCA1 = ABCA1 gene expression in Huh-7 cells; type: cell-based, human; conditions: 24 h, compared to mock-treated cells

| SMILES | protection of MC65 cell death (in words) (MC65 cells [1]) | TD50 (MC65 cells [2]) [µM] | protection of MC65 cell death (MC65 cells [1]; up to 50 μM) | expression of ABCA1 (ABCA1) |
| --- | --- | --- | --- | --- |
| CC(=O)Oc1ccccc1C(=O)NCC(C)[C@H]1CCC2=Cc3c(cc(C)oc3=O)O[C@H]2C1 (stereo partly shown) [Compound 6a] | inactive |  |  |  |
| Cc1cc2c(c(=O)o1)C=C1CC[C@H](C(C)CNCc3ccc(O)c(F)c3)C[C@@H]1O2 (stereo partly shown) [Compound 3f] |  | >50 |  |  |
| Cc1cc2c(c(=O)o1)C=C1CC[C@H](C(C)CNCc3ccc(CO)cc3)C[C@@H]1O2 (stereo partly shown) [Compound 2e] |  | >50 |  |  |
| CCCCCCCCCCC(C)(C)C(=O)Nc1c(OC)cc(OC)cc1OC [CI-976, reference compound] |  |  | inactive | significantly increased |
| Cc1cc2c(c(=O)o1)C=C1CC[C@H](C(C)CNCc3ccc(O)c4ccccc34)C[C@@H]1O2 (stereo partly shown) [Compound 4a] |  | 13.7 ± 0.704 |  | significantly increased |
| Cc1cc2c(c(=O)o1)C=C1CC[C@H](C(C)CNC(=O)c3ccccc3O)C[C@@H]1O2 (stereo partly shown) [Compound 6b] | poor activity |  |  |  |
| Cc1cc2c(c(=O)o1)C=C1CC[C@H](C(C)CNCc3ccc(C#N)cc3)C[C@@H]1O2 (stereo partly shown) [Compound 2i] | abolishes the activity |  |  |  |
| Cc1cc2c(c(=O)o1)C=C1CC[C@H](C(C)Cn3cnc(N)c4ncnc3-4)C[C@@H]1O2 (stereo partly shown) [Compound 1] |  | 39.0 ± 1.12 |  | significantly increased |
| Cc1cc2c(c(=O)o1)C=C1CC[C@H](C(C)CNCc3ccc(O)cc3)C[C@@H]1O2 (mixture of isomers) [Compound 2b, (5aS,7S)-3-Methyl-7-[(1R) and (1S)1-(4-hydroxybenzylamino)propan-2-yl]-1H,7H-5a,6,8,9-tetrahydro-1-oxopyrano[4,3-b][1]benzopyran] |  | 49.3 ± 0.127 |  | significantly increased |
